Laboratory results as given in patent US12391683B2, “Therapeutic compounds and methods” (Actio Biosciences, Inc., priority 2022, dated 2025).
Several values for one entry are separate records, joined by “and”; a condition that tells them apart may be missing. Equal values may be shown once.

How the values were obtained:
[1] = target: recombinant human CYP3A4 enzyme (Homo sapiens, UniProt P08684); assay: CYP3A4 incubation assay; type: in vitro ADME
Procedure: Example 24. CYP3A4 Incubation Assay
Compounds (final concentration […]) were incubated in 100 mM phosphate buffer containing 100 pmol/mL recombinant human CYP3A4 enzyme for 0, 5, 10, 15 and 25 minutes.
Testosterone was used as positive control. Reaction was initiated by the addition of NADPH (final concentration […]) and carried out at 37° C. The reaction was stopped by the addition of 4 volumes of cold acetonitrile (with 100 nM alprazolam, 200 nM labetalol, 200 nM imipramine and 2 μM ketoprofen as internal standards). Samples were centrifuged at 3,220 g for 40 minutes to precipitate protein. 70 μL supernatant was transferred to the analysis plate containing 110 μL of acetonitrile for LC-MS/MS analysis.
The following table indicates the percentage remaining for the indicated examples after incubation with recombinant Human CYP3A4 after 25 minutes under the same conditions as described for Example […].

[2] = test system: Hepatocytes; assay: Hepatocytes predicted clearance, rat
[3] = test system: Hepatocytes; assay: Hepatocytes predicted clearance, dog
[4] = test system: Hepatocytes; assay: Hepatocytes predicted clearance, cyno
[5] = test system: Hepatocytes; assay: Hepatocytes predicted clearance, mouse
[6] = test system: Hepatocytes; assay: Hepatocytes predicted clearance, human
[7] = target: Human TRPV4 (Homo sapiens, UniProt Q9HBA0); assay: TRPV4 calcium flux assay (FLIPR, antagonist mode); type: cell-based; set-up: HiBiT (inferred from the expression read-out); host or cells: HEK293T; details: HEK293T cells transfected with hTRPV4; antagonist mode vs EC80 of TRPV4 agonist; average of at least 3 separate experiments; read-out: Human TRPV4 Ca2+ Assay IC50
Procedure: Example 23. TRPV4 Calcium Assay Methods
Human embryonic kidney 293T (HEK293T/293T) cells are cultured in complete media (Dulbecco's Modified Eagle Medium (DMEM), containing 10% fetal bovine serum (FBS) and 1× penicillin-streptomycin) in a T-75 tissue culture flask. At 90% confluency, cells are detached using TrypLE™ Express cell dissociation buffer. TrypLE™ Express buffer is neutralized by adding culture media in excess. Cells are gently triturated and counted using trypan blue in a Countess 3 automated cell counter. Cells are transferred to a 50 mL conical tube and spun down at 1000 rotations per minute (RPM) for five minutes in a benchtop centrifuge. Media containing detaching enzyme is aspirated off the pellet, followed by resuspension to the desired concentration of 2×10^6 cells per mL in complete DMEM.
Transfection preparations were scaled using a combination of 6 μg of TRPV4 wild-type or mutant plasmid DNA, 36 μL of Fugene6 transfection reagent, and 1000 μL of OptiMEM media for every 2×10^6 cells needed. The transfection mix is left to incubate for 20 minutes at room temperature. Total seeding mixture (1000 μL 2×10^6 cells, 1000 μL transfection mix previously described, and 1000 μL complete DMEM) for one transfection is combined into a 15 mL conical tube. The cells and transfection plasmid are mixed thoroughly and dispensed into a reservoir. This is plated at 25 μL per well in a black 384, black-well, clear-bottom, tissue-culture treated plate. This yields approximately 16,000 cells per well. Plasmid DNA constructs were designed by Actio Biosciences in conjunction with Genscript, and generated by Genscript, for all hTRPV4 wild-type and hTRPV4 P/LP (ClinVar) mutations (G78W, P82S, T891, P97R, R186Q, R232C, R232P, R237G, R237Q, R237 L, R269C, R269H, R269S, G270V, R271P, F273 L, K276E, E278K, G280S, Y281S, R315G, R315W, R316C, R316H, R316 L, R316S, I331F, D333G, S403T, K403T, K407E, S542P, S542Y, L543R, Y591N, R594C, R594H, R594S, G600E, Y602C, R616Q, F617 L, L618P, V6201, A716S, A716T, L735R, T740I, R775K, W785R, E797D, E797K, P799A, P799R, P799S, P799 L, G800D, K801E, P827H, F471del, N797del). The remaining cells are plated in the same manner, in a 384, white-well, clear-bottom, tissue-culture treated plate for expression and relative cell number determination. Plates are placed in the incubator at 37° C. overnight.
Compounds were brought to 10 mM in DMSO. DMSO concentration was kept constant throughout the dilution of any compound. DMSO negative control and concentration-response curves were nanoliter-spotted via PICO8 automated dispenser at 5× test concentration into a 384w clear polypropylene plate containing 1×HBSS+20 mM HEPES buffer. A predetermined concentration equivalent to the EC80 of TRPV4 agonist on hTRPV4 was prepared at 6× in 1×HBSS+20 mM HEPES and loaded into a separate 384-well v-bottom polypropylene plate.
Approximately 18 hours post-transfection, the cell plates were removed from the incubator and equal volume (25 uL) Calcium 6 dye was gently added. Calcium 6 dye containing probenecid (final 5 mM) was prepared per manufacturer's instructions. Cell plate was returned to the incubator for 1 hour, at 37° C.
FLIPR Penta was programmed to add compound using the following settings • Pipettor Head=384 • Read Mode 1 Excitation Wavelength=470_495 • Read Mode 1 Emission Wavelength=515_575 • Read Mode 1 Exposure=0.1000 • Read Mode 1 Gain=6.50 • Read Mode 1 Excitation Intensity=20 • Volume of addition=12.5 μL • Height=40 μL • Speed=15 μL/second
Raw data was exported and analyzed for maximum signal (RFU) after agonist addition—the average baseline (RFU) in the first 15 seconds per well. Data was plotted in GraphPad Prism to determine EC50 or IC50 of the molecules.

[8] = 100 pmol/mL recombinant human CYP3A4, 37° C., 0-25 min

recombinant human CYP3A4 enzyme, sequence (P08684 whole entry): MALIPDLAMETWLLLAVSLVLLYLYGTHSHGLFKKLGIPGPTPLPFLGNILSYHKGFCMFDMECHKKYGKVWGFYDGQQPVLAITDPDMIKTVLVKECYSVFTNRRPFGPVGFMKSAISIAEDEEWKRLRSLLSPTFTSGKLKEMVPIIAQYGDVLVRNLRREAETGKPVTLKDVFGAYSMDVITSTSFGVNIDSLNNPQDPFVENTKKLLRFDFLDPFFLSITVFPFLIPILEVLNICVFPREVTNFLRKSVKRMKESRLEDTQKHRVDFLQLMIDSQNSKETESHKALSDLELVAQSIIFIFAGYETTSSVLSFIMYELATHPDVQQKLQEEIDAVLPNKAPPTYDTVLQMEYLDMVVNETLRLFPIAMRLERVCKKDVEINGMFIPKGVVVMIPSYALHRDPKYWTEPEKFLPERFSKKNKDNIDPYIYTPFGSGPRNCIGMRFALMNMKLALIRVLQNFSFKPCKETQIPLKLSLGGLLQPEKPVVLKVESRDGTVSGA
Human TRPV4, sequence (Q9HBA0 whole entry): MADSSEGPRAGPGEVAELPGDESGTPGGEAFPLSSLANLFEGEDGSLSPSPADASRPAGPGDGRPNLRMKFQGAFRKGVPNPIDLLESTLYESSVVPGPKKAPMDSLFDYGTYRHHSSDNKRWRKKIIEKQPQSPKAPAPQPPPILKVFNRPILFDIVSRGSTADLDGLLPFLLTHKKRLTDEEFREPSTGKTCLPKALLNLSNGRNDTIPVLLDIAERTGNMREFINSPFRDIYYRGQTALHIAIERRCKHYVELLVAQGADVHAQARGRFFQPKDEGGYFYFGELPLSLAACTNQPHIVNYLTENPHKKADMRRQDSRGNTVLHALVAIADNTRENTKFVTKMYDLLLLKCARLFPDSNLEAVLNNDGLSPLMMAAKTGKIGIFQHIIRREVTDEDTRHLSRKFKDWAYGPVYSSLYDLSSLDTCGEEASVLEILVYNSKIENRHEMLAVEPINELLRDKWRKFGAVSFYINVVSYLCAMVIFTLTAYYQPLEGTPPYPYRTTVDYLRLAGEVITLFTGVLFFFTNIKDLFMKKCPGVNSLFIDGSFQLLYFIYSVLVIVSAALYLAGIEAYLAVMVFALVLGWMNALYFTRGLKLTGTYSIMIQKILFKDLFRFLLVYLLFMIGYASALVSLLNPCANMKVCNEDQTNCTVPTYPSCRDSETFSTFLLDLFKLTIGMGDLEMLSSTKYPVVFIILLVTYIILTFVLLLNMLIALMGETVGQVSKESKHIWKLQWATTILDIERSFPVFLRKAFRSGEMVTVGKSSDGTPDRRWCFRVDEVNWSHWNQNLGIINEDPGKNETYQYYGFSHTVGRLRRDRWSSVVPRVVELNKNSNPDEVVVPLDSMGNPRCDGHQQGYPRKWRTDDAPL

C=C1CC[C@@]2(CN(c3cnc(C(C)(C)O)cn3)C(=O)O2)C[C@@]1(C)Cn1cnc2ccc(C#N)cc21 (single isomer, unassigned) [Example 16]
CYP3A4 Clint [1, 8]: 0.20 μL/min/pmol CYP450 and 0.19 μL/min/pmol CYP450
Hepatocytes predicted clearance in rat [2]: 69.3 mL/min/kg
Hepatocytes predicted clearance in dog [3]: 4 mL/min/kg
Hepatocytes predicted clearance in cyno [4]: 22.7 mL/min/kg
Hepatocytes predicted clearance in mouse [5]: 90.7 mL/min/kg
Hepatocytes predicted clearance in human [6]: 5.5 mL/min/kg
IC50 [7]: 2130 nM

CC(C)(O)c1cnc(N2C[C@@]3(CCC[C@](CF)(Cn4cnc5ccc(C#N)cc54)C3)OC2=O)cn1 (single isomer, unassigned) [Example 7]
CYP3A4 Clint [1, 8]: <0.07, <0.07 μL/min/pmol CYP450
Hepatocytes predicted clearance in rat [2]: 6.7 mL/min/kg
Hepatocytes predicted clearance in dog [3]: < 0.17 mL/min/kg
Hepatocytes predicted clearance in cyno [4]: 4.5 mL/min/kg
Hepatocytes predicted clearance in mouse [5]: 43.2 mL/min/kg
Hepatocytes predicted clearance in human [6]: 1 mL/min/kg
IC50 [7]: 11 nM

CC1(C)C[C@](C)(Cn2cnc3ccc(C#N)cc32)C[C@@]2(CN(c3cnc(C(C)(C)O)cn3)C(=O)O2)C1 (single isomer, unassigned) [Example 17]
CYP3A4 Clint [1, 8]: 0.07, <0.07 μL/min/pmol CYP450
Hepatocytes predicted clearance in rat [2]: 39.3 mL/min/kg
Hepatocytes predicted clearance in dog [3]: 1.3 mL/min/kg
Hepatocytes predicted clearance in cyno [4]: 43.7 mL/min/kg
Hepatocytes predicted clearance in mouse [5]: 119 mL/min/kg
Hepatocytes predicted clearance in human [6]: 1.5 mL/min/kg
IC50 [7]: 5740 nM

CC(C)(O)c1cnc(N2C[C@@]3(CC[C@@H](F)[C@](C)(Cn4cnc5c(Cl)cc(C#N)cc54)C3)OC2=O)cn1 (single isomer, unassigned) [Example 19]
IC50 [7]: 9 nM

CC(C)(O)c1cnc(N2C[C@@]3(CCC4(CC4)[C@](C)(Cn4cnc5ccc(C#N)cc54)C3)OC2=O)cn1 (single isomer, unassigned) [Example 6]
CYP3A4 Clint ([1]; human, recombinant enzyme): <0.07, <0.07 μL/min/pmol CYP450
Hepatocytes predicted clearance in rat [2]: 8.3 mL/min/kg
Hepatocytes predicted clearance in dog [3]: 3.17 mL/min/kg
Hepatocytes predicted clearance in cyno [4]: 120 mL/min/kg
Hepatocytes predicted clearance in mouse [5]: 24.5 mL/min/kg
Hepatocytes predicted clearance in human [6]: 6.5 mL/min/kg
IC50 [7]: 8 nM

N#Cc1ccc2ncn(C[C@@H]3C[C@@]4(CCC3(F)F)CN(c3ccccc3Cl)C(=O)O4)c2c1 (single isomer, unassigned) [Example 12]
Hepatocytes predicted clearance in rat [2]: 82.5 mL/min/kg
Hepatocytes predicted clearance in dog [3]: 284.5 mL/min/kg
Hepatocytes predicted clearance in cyno [4]: 101 mL/min/kg
Hepatocytes predicted clearance in mouse [5]: 449.3 mL/min/kg
Hepatocytes predicted clearance in human [6]: 7.5 mL/min/kg
IC50 [7]: 103 nM

CC(C)(O)c1cnc(N2C[C@@]3(CCC4(CC4)[C@@H](Cn4cnc5ccc(C#N)cc54)C3)OC2=O)cn1 (single isomer, unassigned) [Example 3]
Hepatocytes predicted clearance in rat [2]: 79.5 mL/min/kg
Hepatocytes predicted clearance in dog [3]: 17.3 mL/min/kg
Hepatocytes predicted clearance in cyno [4]: 182 mL/min/kg
Hepatocytes predicted clearance in mouse [5]: 131 mL/min/kg
Hepatocytes predicted clearance in human [6]: 3.17 mL/min/kg
IC50 [7]: 852 nM

CC(C)(O)c1cnc(N2C[C@@]3(CCC(C)(C)[C@H](Cn4cnc5ccc(C#N)cc54)C3)OC2=O)cn1 (single isomer, unassigned) [Example 1]
Hepatocytes predicted clearance in rat [2]: 10.8 mL/min/kg
Hepatocytes predicted clearance in dog [3]: 11.5 mL/min/kg
Hepatocytes predicted clearance in cyno [4]: 4 mL/min/kg
Hepatocytes predicted clearance in mouse [5]: 118 mL/min/kg
Hepatocytes predicted clearance in human [6]: 4.5 mL/min/kg
IC50 [7]: 606 nM

CC(C)(O)c1cnc(N2C[C@@]3(CC[C@@H](F)[C@](C)(Cn4cnc5cc(F)c(C#N)cc54)C3)OC2=O)cn1 (single isomer, unassigned) [Example 18]
IC50 [7]: 9 nM

CO[C@]1(Cn2cnc3ccc(C#N)cc32)CCC[C@@]2(CN(c3cnc(C(C)(C)O)cn3)C(=O)O2)C1 [Example 9, 1-(((5S,7R)-3-(5-(2-Hydroxypropan-2-yl)pyrazin-2-yl)-7-methoxy-2-oxo-1-oxa-3-azaspiro[4.5]decan-7-yl)methyl)-1H-benzo[d]imidazole-6-carbonitrile]
CYP3A4 Clint [1, 8]: 0.42 μL/min/pmol CYP450 and 0.33 μL/min/pmol CYP450
IC50 [7]: 213 nM

CO[C@@H]1CC[C@@]2(CN(c3cnc(C(C)(C)O)cn3)C(=O)O2)C[C@@]1(C)Cn1cnc2ccc(C#N)cc21 (single isomer, unassigned) [Example 10]
CYP3A4 Clint [1, 8]: 0.22 μL/min/pmol CYP450 and 0.21 μL/min/pmol CYP450
IC50 [7]: 158 nM

CCOc1ccccc1N1C[C@@]2(CCC(F)(F)[C@H](Cn3cnc4ccc(C#N)cc43)C2)OC1=O (single isomer, unassigned) [Example 13]
IC50 [7]: 496 nM

CC(C)(C)CN1C[C@@]2(CCC(F)(F)[C@H](Cn3cnc4ccc(C#N)cc43)C2)OC1=O (single isomer, unassigned) [Example 11]
Hepatocytes predicted clearance in rat [2]: 251.2 mL/min/kg
Hepatocytes predicted clearance in dog [3]: 63.3 mL/min/kg
Hepatocytes predicted clearance in cyno [4]: 90.5 mL/min/kg
Hepatocytes predicted clearance in mouse [5]: 515.2 mL/min/kg
Hepatocytes predicted clearance in human [6]: 17.3 mL/min/kg
IC50 [7]: 39 nM
